Experiments:
Assay type in all cases: cell-based
[1] = system: human colon carcinoma cell line HCT116; assay: Caspase cascade activation (EC50), HCT116; conditions: Homo sapiens, HCT-116; HCT116 cells; caspase cascade activation; read-out: caspase potency (EC50) HCT116
Summary of the method: (§1)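 Cells at 0.65×10^6 cells/mL exposed to compound at 0.016 to 10 μM final (1% DMSO) for 48 h at 37° C, 5% CO2. Caspase activity then read with 14 μM Ac-DEVD-R110 fluorogenic substrate in lysolecithin/DTT/PIPES pH 7.2 buffer at ex 485/em 530 nm after 3 h at room temperature. EC50 fitted sigmoidally from net RFU ratio to control.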

[2] = system: human lymphoma cell line Raji; assay: Caspase cascade activation (EC50), Raji; conditions: Homo sapiens, RAJI cells, read-out: caspase potency (EC50) RAJI
Summary of the method: as §1

[3] = system: human B cell lymphoblastoid cell line Ramos; assay: Caspase cascade activation (EC50), Ramos; conditions: Homo sapiens, RAMOS cells, read-out: caspase potency (EC50) RAMOS
Summary of the method: as §1

[4] = system: human breast cancer cell line T-47D; assay: Caspase cascade activation (EC50), T-47D; conditions: Homo sapiens; T47D cells; caspase cascade activation; read-out: caspase potency (EC50) T47D
Summary of the method: as §1

[5] = system: human sarcoma cell line MES-SA; assay: Inhibition of cell proliferation (GI50), MES-SA; conditions: MES-SA cells
Procedure: (§2) Human breast cancer cell lines T-47D, human hepatocellular carcinoma cell line SNU398, human colon carcinoma cell line HCT116, human lung cancer cell line H1299, human leukemia cell line K562, human lymphoma cell line Raji, human B cell lymphoblastoid cell line Ramos, and human Burkitt's lymphoma cell line Namalwa were grown and harvested as in Example 100. An aliquot of […] of cells (4.4×10^4 cells/mL) was added to a well of a 96-well microtiter plate containing 5 μL of a 10% DMSO in RPMI-1640 media solution containing 10 nM to 100 μM of 3-(2-chlorophenyl)-6-(3,4-methylenedioxyphenyl)-7H-[1,2,4]triazolo[3,4-b][1,3,4]thiadiazine (1 nM to 10 μM final). An aliquot of 45 μL of cells was added to a well of a 96-well microtiter plate containing 5 μL of a 10% DMSO in RPMI-1640 media solution without compound as the control sample for maximal cell proliferation (LMax). The samples were mixed by agitation and then incubated at 37° C. for 48 h in a 5% CO2-95% humidity incubator. After incubation, the samples were removed from the incubator and 25 μL of CellTiter-Glo™ reagent (Promega) was added. The samples were mixed by agitation and incubated at room temperature for 10-15 min. Plates were then read using a luminescent plate reader (Model SPECTRAfluor Plus, Tecan) to give Ltest values.
(§3) The samples were mixed by agitation and then incubated at 37° C. for 0.5 h in a 5% CO2-95% humidity incubator. After incubation, the samples were removed from the incubator and 25 μL of CellTiter-Glo™ reagent (Promega) was added. The samples were mixed by agitation and incubated at […] 10-15 min at room temperature in a 5% CO2-95% humidity incubator. Fluorescence was read as above, (LStart) defining luminescence for initial cell number used as baseline in GI50 determinations.
(§4) Calculation: GI50 (dose for 50% inhibition of cell proliferation) is the concentration where [(Ltest−LStart)/(LMax−LStart)]=0.5.
(§5) Several compounds were tested in human sarcoma cell line MES-SA and multi-drug resistant (MDR) human sarcoma cell line MES-SA/ADR, murine leukemia cell line P388 and multi-drug resistant (MDR) murine leukemia cell line P388/ADR, and the data are summarized in Table III.

[6] = system: human hepatocellular carcinoma cell line SNU398; assay: Caspase cascade activation (EC50), SNU398; conditions: Homo sapiens, SNU-398; SNU398 cells; caspase cascade activation; read-out: caspase potency (EC50) SNU398
Summary of the method: as §1

[7] = system: murine leukemia cell line P388; assay: Inhibition of cell proliferation (GI50), P388; conditions: Mus musculus; P388 cells
Procedure: as §2, §3, §4, §5

[8] = system: human Burkitt's lymphoma cell line Namalwa; assay: Caspase cascade activation (EC50), Namalwa; conditions: Homo sapiens, Burkitts lymphoma cell; Namalwa cells; caspase cascade activation; read-out: caspase potency (EC50) Namalwa
Summary of the method: as §1

[9] = system: multi-drug resistant (MDR) human sarcoma cell line MES-SA/ADR; assay: Inhibition of cell proliferation (GI50), MES-SA/ADR; conditions: MES-SA/ADR multi-drug resistant cells
Procedure: as §2, §3, §4, §5

[10] = system: multi-drug resistant (MDR) murine leukemia cell line P388/ADR; assay: Inhibition of cell proliferation (GI50), P388/ADR; conditions: Mus musculus; P388/ADR multi-drug resistant cells
Procedure: as §2, §3, §4, §5

[11] = system: human breast cancer cell line T-47D; assay: Inhibition of cell proliferation (GI50), T47D; conditions: Homo sapiens; T47D cells, 48 h, CellTiter-Glo
Summary of the method: (§6)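 Proliferation was measured by luminescent ATP assay after cells were incubated with compound for 48 h at 37 °C. GI50 was derived as the concentration giving half the growth seen in drug-free wells, after subtracting the signal recorded 0.5 h post-seeding.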

[12] = system: human leukemia cell line K562; assay: Inhibition of cell proliferation (GI50), K562; conditions: Homo sapiens; K562 cells, 48 h, CellTiter-Glo
Summary of the method: as §6

[13] = system: human hepatocellular carcinoma cell line SNU398; assay: Inhibition of cell proliferation (GI50), SNU398; conditions: Homo sapiens; SNU 398 cells, 48 h, CellTiter-Glo
Summary of the method: as §6

[14] = system: human cancer cell line H1299; assay: Caspase cascade activation (EC50), H1299; conditions: NCI-H1299, H1299 cells, read-out: caspase potency (EC50) H1299
Summary of the method: as §1

[15] = system: human lung cancer cell line H1299; assay: Inhibition of cell proliferation (GI50), H1299; conditions: NCI-H1299, H1299 cells, 48 h, CellTiter-Glo
Procedure: as §2, §3, §4

[16] = system: human colon carcinoma cell line HCT116; assay: Inhibition of cell proliferation (GI50), HCT116; conditions: Homo sapiens; HCT 116 cells, 48 h, CellTiter-Glo
Summary of the method: as §6

[17] = system: human B cell lymphoblastoid cell line Ramos; assay: Inhibition of cell proliferation (GI50), Ramos; conditions: Homo sapiens; Ramos cells, 48 h, CellTiter-Glo
Summary of the method: as §6

[18] = system: human lymphoma cell line Raji; assay: Inhibition of cell proliferation (GI50), Raji; conditions: Homo sapiens; Raji cells, 48 h, CellTiter-Glo
Summary of the method: as §6

[19] = system: human Burkitt's lymphoma cell line Namalwa; assay: Inhibition of cell proliferation (GI50), Namalwa; conditions: Homo sapiens, Burkitts lymphoma cell; Namalwa cells, 48 h, CellTiter-Glo
Summary of the method: as §6

| SMILES | EC50 [1] [nM] | EC50 [2] [nM] | EC50 [3] [nM] | EC50 [4] [nM] | GI50 [5] [nM] | EC50 [6] [nM] | GI50 [7] [nM] | EC50 [8] [nM] | GI50 [9] [nM] | GI50 [10] [nM] | GI50 [11] [nM] | GI50 [12] [nM] | GI50 [13] [nM] | EC50 [14] [nM] | GI50 [15] [nM] | GI50 [16] [nM] | GI50 [17] [nM] | GI50 [18] [nM] | GI50 [19] [nM] |
| --- | --- | --- | --- | --- | --- | --- | --- | --- | --- | --- | --- | --- | --- | --- | --- | --- | --- | --- | --- |
| COc1ccccc1-c1nnc2n1N=C(c1ccc3c(c1)OCO3)CS2 [V, 3-(2-Methoxyphenyl)-6-(3,4-methylenedioxyphenyl)-7H-[1,2,4]triazolo[3,4-b][1,3,4]thiadiazine] | 111 | 81 | 75 | 62 | 83 | 68 | 31 | 61 | 123 | 43 |  |  |  |  |  |  |  |  |  |
| COc1cc(-c2nnc3n2N=C(c2ccc4c(c2)OCO4)CS3)cc(OC)c1OC [Example M1, 3-(3,4,5-Trimethoxyphenyl)-6-(3,4-methylenedioxyphenyl)-7H-[1,2,4]triazolo[3,4-b][1,3,4]thiadiazine] | 40 | 19 | 13 | 61 | 17 | 28 | 7 | 31 | 25 | 10 | 22 | 18 | 12 | 68 | 166 | 25 | 16 | 41 | 13 |
| COc1cc(OC)cc(-c2nnc3n2N=C(c2ccc4c(c2)OCO4)CS3)c1 [Example 2, 3-(3,5-Dimethoxyphenyl)-6-(3,4-methylenedioxyphenyl)-7H-[1,2,4]triazolo[3,4-b][1,3,4]thiadiazine] | 139 | 112 | 89 | 508 | 59 | 141 | 20 | 117 | 154 | 29 |  | 27 |  |  |  | 190 | 11 | 53 | 20 |
| COc1ccc(C2=Nn3c(nnc3-c3cccc(OC)c3)SC2)cc1 [Example X, 3-(3-methoxyphenyl)-6-(4-methoxyphenyl)-7H-[1,2,4]triazolo[3,4-b][1,3,4]thiadiazine] | 119 | 83 | 67 | 523 | 418 | 67 | 57 | 66 | 196 | 77 | 400 | 32 | 55 | 680 |  | 157 | 14 | 62 | 119 |
| COc1cc(-c2nnc3n2N=C(c2ccc4c(c2)OCO4)CS3)cc(Cl)c1OC [Example 4, 3-(3-Chloro-4,5-dimethoxyphenyl)-6-(3,4-methylenedioxyphenyl)-7H-[1,2,4]triazolo[3,4-b][1,3,4]thiadiazine] | 61 | 32 | 31 | 168 | 30 | 47 | 12 | 36 | 28 | 16 |  | 24 |  |  |  | 150 | 12 | 26 | 31 |
| COc1ccc(C2=Nn3c(nnc3-c3cc(OC)c(OC)c(OC)c3)SC2)cc1 [Example A2, 3-(3,4,5-Trimethoxyphenyl)-6-(4-methoxyphenyl)-7H-[1,2,4]triazolo[3,4-b][1,3,4]thiadiazine] | 154 | 49 | 32 | 517 | 44 | 36 | 23 | 36 | 63 | 25 |  |  |  |  |  |  |  |  |  |

From patent US20080045514A1 (Cytovia, Inc., priority 2006, published 2008)
